# Experimental data: patent publication US8936930B2, “Red microalgae expressing exogenous polypeptides and methods of generating and utilizing same” (priority 2004, dated 2015)
# Test system: Porphyridium sp.
# Assay: Antibiotic sensitivities of Porphyridium sp. (growth in ASW supplemented with antibiotic)
# Type: cell-based, Porphyridium sp. (UTEX 637)
# Parameters: key to Growth: ++: no inhibition of growth rate; +: slight inhibition of growth rate; −: no growth
# Settings: for Growth: Porphyridium sp. in ASW
# Method: Porphyridium sp. (UTEX 637, from the culture collection of algae at the University of Texas at Austin) cells were cultured in artificial seawater (ASW; Jones et al. Plant Physiol. 16:636-643, 1963) supplemented with different antibiotic compounds for evaluating antibiotic sensitivities.
compound,measurement,setting,value
O=C(N[C@H](CO)[C@H](O)c1ccc([N+](=O)[O-])cc1)C(Cl)Cl [Chloramphenicol],Growth,200 μg/ml,+
same,Growth,500 μg/ml,−
C[C@@H]1C[C@@H]([C@H](O)CC2CC(=O)NC(=O)C2)C(=O)[C@@H](C)C1 [Cyclohexhimide],Growth,5 μM,−
CN[C@@H]1[C@@H](O)[C@@H](O[C@@H]2[C@@H](O)[C@H](O[C@H]3O[C@H]([C@@H](C)O)[C@@H](O)[C@H](O)[C@H]3N)[C@@H](N)C[C@H]2N)OC[C@]1(C)O [G418],Growth,2 μg/ml,+
NC[C@H]1O[C@H](O[C@H]2[C@H](O)[C@@H](O[C@H]3O[C@H](CO)[C@@H](O)[C@H](N)[C@H]3O)[C@H](N)C[C@@H]2N)[C@H](O)[C@@H](O)[C@@H]1O [Kanamycin],Growth,700 μg/ml,++
CCC[C@@H]1C[C@@H](C(=O)N[C@@H]([C@H]2O[C@H](SC)[C@H](O)[C@@H](O)[C@H]2O)[C@@H](C)O)N(C)C1 [Lincomycin],Growth,300 μg/ml,++
CN(Cc1cnc2nc(N)nc(N)c2n1)c1ccc(C(=O)N[C@@H](CCC(=O)O)C(=O)O)cc1 [Methotrexate],Growth,80 μg/ml,++
NC[C@@H]1O[C@H](O[C@H]2[C@@H](O)[C@H](O[C@@H]3[C@@H](O)[C@H](N)C[C@H](N)[C@H]3O[C@H]3O[C@H](CO)[C@@H](O)[C@H](O)[C@H]3N)O[C@@H]2CO)[C@H](N)[C@@H](O)[C@@H]1O [Paramomycin],Growth,200 μg/ml,++
CN[C@@H]1[C@H](O)[C@H](NC)[C@H]2O[C@@]3(O)C(=O)C[C@@H](C)O[C@H]3O[C@@H]2[C@H]1O [Spectinomycin],Growth,300 μg/ml,++
Cc1c(N)nc([C@H](CC(N)=O)NC[C@H](N)C(N)=O)nc1C(=O)N[C@H](C(=O)N[C@H](C)[C@@H](O)[C@H](C)C(=O)N[C@H](C(=O)NCCC1=N[C@@H](c2nc(C(=O)NCCCCN=C(N)N)cs2)CS1)[C@@H](C)O)[C@@H](O[C@@H]1O[C@@H](CO)[C@@H](O)[C@H](O)[C@@H]1O[C@H]1O[C@H](CO)[C@@H](O)[C@H](OC(N)=O)[C@@H]1O)c1cnc[nH]1 [Zeocin],Growth of untransformed (wild-type) Porphyridium sp. (in words),"zeocin 4 μg/ml, 17 days incubation in ASW medium",no growth
same,Growth of wild type Porphyridium sp. (in words),zeocin 10 μg/ml,no growth
same,Growth of Porphyridium sp. (in words),zeocin 4-8 μg/ml,no growth
Neomycin,Growth,150 μg/ml,++
Phleomycin,Growth,10 μg/ml,++
